For 15 molecules, Ki results are on record in article PMC11672547, “Combination of Coevolutionary Information and Supervised Learning Enables Generation of Cyclic Peptide Inhibitors with Enhanced Potency from a Small Data Set” (ACS Central Science, 2024).

Numbered stars: 1 amine (or outer) side, 2 acyl side, 3 side chain; on linkers, the order of the positions; unused ones are H or OH. Bridge positions count the residues as written; N and C are the ends. Peptide text beside a SMILES is read from it. TBMB = c1c(C[*:1])cc(C[*:3])cc1C[*:2]

In this test the target is T1, human urokinase-type plasminogen activator (huPA) (Homo sapiens, UniProt P00749).
T1 construct: (UPA-LMW, Molecular Innovations, Novi, MI, USA) 1.5 nM; purchased Molecular Innovations UPA-LMW
The experiment in a line: huPA inhibition, fluorogenic enzyme activity assay (Z-Gly-Gly-Arg-AMC), Ki by Cheng-Prusoff. The class given is biochemical. The following applies: 25 °C, pH 7.4, substrate 50 μM, mean ± S.E. of at least three measurements, read-out: Ki. As to the method: bicyclic peptides. The activity assay was performed by incubating […] huPA with 50 μM fluorogenic substrate Z-Gly-Gly-Arg-AMC (50 μM; Bachem, Bubendorf, Switzerland) and […]
NaCl, 10 mM MgCl2, 1mM CaCl2, 0.1% w/v BSA, 0.01% v/v Triton-X100 and 5% v/v DMSO.
The measurements were performed on a Tecan microplate reader (Tecan infinite 200 pro, Tecan Trading AG, Switzerland) using black microfluor 96-well plate Nunc MicroWell, (Thermo Fisher Scientific, Dreieich, Germany) The enzymatic reactions were performed at 25 °C for 30 min, under shacking with an excitation wavelength of 355 nm and an emission recording at 460 nm. The initial velocities were monitored as changes in fluorescence intensity. The sigmoidal curves were fitted to the data using the following non-linear regression equation for the inhibitory dose-response curves with variable slope (2): […]
where x is the peptide concentration, y is the residual percentage of protease activity and p is the hill slope. Half maximum inhibitory concentration (IC50) values were derived from the fitted curves from GraphPad Prism 8 8.0.0. software (GraphPad software, Inc., San Diego, California). The final Ki was subsequently determined using the Cheng-Prusoff equation (3): […]
where Km (115 μM) is the Michaelis constant for the hydrolysis of Z-Gly-Gly-Arg-AMC catalysed by huPA which has been determined by standard Michaelis-Menten equation.
Values were determined using either OriginPro 8G software (OriginLab Corporation, Northamppton, MA, USA) or GraphPad Prism 8.0.0. software (GraphPad software, Inc., San […]
Recombinant production of the catalytic domain of human urokinase-type […]
The low molecular weight (LMW) human urokinase-type plasminogen activator (huPA) comprising the truncated 23 amino acid peptide fragment of chain A (Lys136-Lys158 in […]
`CC(C)[C@@H]1NC(=O)[C@H](CCC(=O)O)NC(=O)[C@H](Cc2ccc(O)cc2)NC(=O)[C@H](CCCN=C(N)N)NC(=O)[C@H](CO)NC(=O)[C@@H](NC(=O)[C@H](C)N)CSCc2cc3cc(c2)CSC[C@H](NC(=O)[C@H](CC(=O)O)NC1=O)C(=O)N[C@@H](CCCN=C(N)N)C(=O)NCC(=O)N[C@@H](CCCN=C(N)N)C(=O)NCC(=O)N[C@@H](CO)C(=O)N[C@@H](C)C(=O)N[C@H](C(=O)NCC(N)=O)CSC3` [UK18, reference compound] (H-ACSRYEVDCRGRGSACG-NH2; linker 2-9-16 via TBMB): the inhibitory constant (Ki) came to 0.0547 ± 0.008 µM.
With `CC(C)[C@@H]1NC(=O)CNC(=O)CNC(=O)[C@H](CCCNC(=N)N)NC(=O)CNC(=O)[C@H](CCCNC(=N)N)NC(=O)[C@@H]2CSCc3cc(cc(c3)CSC[C@@H](C(=O)NCC(N)=O)NC1=O)CSC[C@H](NC(=O)[C@H](C)N)C(=O)N[C@@H](CC(=O)O)C(=O)N[C@@H](CCCNC(=N)N)C(=O)N[C@@H](Cc1ccccc1)C(=O)N[C@@H](C(C)C)C(=O)N[C@@H](C(C)C)C(=O)N[C@@H](CC(=O)O)C(=O)N2` [UK956] (H-ACDRFVVDCRGRGGVCG-NH2; linker 2-9-16 via TBMB), the Ki was found to be 0.0947 ± 0.0003 µM.
Regarding `CC(C)[C@@H]1NC(=O)[C@H](Cc2ccccc2)NC(=O)[C@H](CCCNC(=N)N)NC(=O)[C@H](CC(=O)O)NC(=O)[C@@H](NC(=O)[C@H](C)N)CSCc2cc3cc(c2)CSC[C@@H](C(=O)NCC(N)=O)NC(=O)[C@@H]2CCCN2C(=O)CNC(=O)CNC(=O)[C@H](CCCNC(=N)N)NC(=O)CNC(=O)[C@H](CCCNC(=N)N)NC(=O)[C@H](CSC3)NC(=O)[C@H](CC(=O)O)NC(=O)[C@H](C(C)C)NC1=O` [UK957] (H-ACDRFVVDCRGRGGPCG-NH2; linker 2-9-16 via TBMB), the Ki stood at 0.0074 ± 0.0009 µM.
Turning to `CC(C)[C@@H]1NC(=O)[C@H](CO)NC(=O)CNC(=O)[C@H](CCCNC(=N)N)NC(=O)CNC(=O)[C@H](CCCNC(=N)N)NC(=O)[C@@H]2CSCc3cc(cc(c3)CSC[C@@H](C(=O)NCC(N)=O)NC1=O)CSC[C@H](NC(=O)[C@H](C)N)C(=O)N[C@@H](CC(=O)O)C(=O)N[C@@H](CCCNC(=N)N)C(=O)N[C@@H](Cc1ccccc1)C(=O)N[C@@H](C(C)C)C(=O)N[C@@H](C(C)C)C(=O)N[C@@H](CC(=O)O)C(=O)N2` [UK958] (H-ACDRFVVDCRGRGSVCG-NH2; linker 2-9-16 via TBMB), the inhibition constant (Ki) is 0.1549 ± 0.001 µM.
Consider `CC(C)[C@@H]1NC(=O)[C@H](Cc2ccccc2)NC(=O)[C@H](CCCNC(=N)N)NC(=O)[C@H](CC(=O)O)NC(=O)[C@@H](NC(=O)[C@H](C)N)CSCc2cc3cc(c2)CSC[C@@H](C(=O)NCC(N)=O)NC(=O)[C@@H]2CCCN2C(=O)[C@H](CO)NC(=O)CNC(=O)[C@H](CCCNC(=N)N)NC(=O)CNC(=O)[C@H](CCCNC(=N)N)NC(=O)[C@H](CSC3)NC(=O)[C@H](CC(=O)O)NC(=O)[C@H](C(C)C)NC1=O` [UK959] (H-ACDRFVVDCRGRGSPCG-NH2; linker 2-9-16 via TBMB), for which the Ki was found to be 0.0775 ± 0.0002 µM.
Consider `CC(C)[C@@H]1NC(=O)CNC(=O)CNC(=O)[C@H](CCCNC(=N)N)NC(=O)CNC(=O)[C@H](CCCNC(=N)N)NC(=O)[C@@H]2CSCc3cc(cc(c3)CSC[C@@H](C(=O)NCC(N)=O)NC1=O)CSC[C@H](NC(=O)[C@H](C)N)C(=O)N[C@@H](CC(=O)O)C(=O)N[C@@H](CCCNC(=N)N)C(=O)N[C@@H](Cc1ccccc1)C(=O)N[C@@H](CCC(=O)O)C(=O)N[C@@H](C(C)C)C(=O)N[C@@H](CC(=O)O)C(=O)N2` [UK960] (H-ACDRFEVDCRGRGGVCG-NH2; linker 2-9-16 via TBMB), for which the Ki turned out to be 0.0812 ± 0.0003 µM.
For `CC(C)[C@@H]1NC(=O)[C@H](CCC(=O)O)NC(=O)[C@H](Cc2ccccc2)NC(=O)[C@H](CCCNC(=N)N)NC(=O)[C@H](CC(=O)O)NC(=O)[C@@H](NC(=O)[C@H](C)N)CSCc2cc3cc(c2)CSC[C@@H](C(=O)NCC(N)=O)NC(=O)[C@@H]2CCCN2C(=O)CNC(=O)CNC(=O)[C@H](CCCNC(=N)N)NC(=O)CNC(=O)[C@H](CCCNC(=N)N)NC(=O)[C@H](CSC3)NC(=O)[C@H](CC(=O)O)NC1=O` [UK961] (H-ACDRFEVDCRGRGGPCG-NH2; linker 2-9-16 via TBMB) the value was 0.0162 µM; for `CC(C)[C@@H]1NC(=O)[C@H](CO)NC(=O)CNC(=O)[C@H](CCCNC(=N)N)NC(=O)CNC(=O)[C@H](CCCNC(=N)N)NC(=O)[C@@H]2CSCc3cc(cc(c3)CSC[C@@H](C(=O)NCC(N)=O)NC1=O)CSC[C@H](NC(=O)[C@H](C)N)C(=O)N[C@@H](CC(=O)O)C(=O)N[C@@H](CCCNC(=N)N)C(=O)N[C@@H](Cc1ccccc1)C(=O)N[C@@H](CCC(=O)O)C(=O)N[C@@H](C(C)C)C(=O)N[C@@H](CC(=O)O)C(=O)N2` [UK962] (H-ACDRFEVDCRGRGSVCG-NH2; linker 2-9-16 via TBMB), 0.081 ± 0.0079 µM; for `CC(C)[C@@H]1NC(=O)[C@H](CCC(=O)O)NC(=O)[C@H](Cc2ccccc2)NC(=O)[C@H](CCCNC(=N)N)NC(=O)[C@H](CC(=O)O)NC(=O)[C@@H](NC(=O)[C@H](C)N)CSCc2cc3cc(c2)CSC[C@@H](C(=O)NCC(N)=O)NC(=O)[C@@H]2CCCN2C(=O)[C@H](CO)NC(=O)CNC(=O)[C@H](CCCNC(=N)N)NC(=O)CNC(=O)[C@H](CCCNC(=N)N)NC(=O)[C@H](CSC3)NC(=O)[C@H](CC(=O)O)NC1=O` [UK963] (H-ACDRFEVDCRGRGSPCG-NH2; linker 2-9-16 via TBMB), 0.0814 ± 0.0009 µM.
For `CC(C)[C@@H]1NC(=O)[C@H](CCC(=O)O)NC(=O)[C@H](Cc2ccc(O)cc2)NC(=O)[C@H](CCCNC(=N)N)NC(=O)[C@H](CO)NC(=O)[C@@H](NC(=O)[C@H](C)N)CSCc2cc3cc(c2)CSC[C@@H](C(=O)NCC(N)=O)NC(=O)[C@@H]2CCCN2C(=O)[C@H](CO)NC(=O)CNC(=O)[C@H](CCCNC(=N)N)NC(=O)CNC(=O)[C@H](CCCNC(=N)N)NC(=O)[C@H](CSC3)NC(=O)[C@H](CC(=O)O)NC1=O` [UK964] (H-ACSRYEVDCRGRGSPCG-NH2; linker 2-9-16 via TBMB) the value was 0.0314 ± 0.0001 µM; for `CC(C)[C@@H]1NC(=O)[C@H](CCC(=O)O)NC(=O)[C@H](Cc2ccc(O)cc2)NC(=O)[C@H](CCCNC(=N)N)NC(=O)[C@H](CO)NC(=O)[C@@H](NC(=O)[C@H](C)N)CSCc2cc3cc(c2)CSC[C@@H](C(=O)NCC(N)=O)NC(=O)[C@@H]2CCCN2C(=O)CNC(=O)CNC(=O)[C@H](CCCNC(=N)N)NC(=O)CNC(=O)[C@H](CCCNC(=N)N)NC(=O)[C@H](CSC3)NC(=O)[C@H](CC(=O)O)NC1=O` [UK965] (H-ACSRYEVDCRGRGGPCG-NH2; linker 2-9-16 via TBMB), 0.0123 ± 0.001 µM.
For `CC(C)[C@@H]1NC(=O)[C@H](CCC(=O)O)NC(=O)[C@H](Cc2ccc(O)cc2)NC(=O)[C@H](CCCNC(=N)N)NC(=O)[C@H](CC(=O)O)NC(=O)[C@@H](NC(=O)[C@H](C)N)CSCc2cc3cc(c2)CSC[C@@H](C(=O)NCC(N)=O)NC(=O)[C@@H]2CCCN2C(=O)CNC(=O)CNC(=O)[C@H](CCCNC(=N)N)NC(=O)CNC(=O)[C@H](CCCNC(=N)N)NC(=O)[C@H](CSC3)NC(=O)[C@H](CC(=O)O)NC1=O` [UK966] (H-ACDRYEVDCRGRGGPCG-NH2; linker 2-9-16 via TBMB) the value was 0.0116 ± 0.0012 µM; for `CC(C)[C@@H]1NC(=O)[C@H](CCC(=O)O)NC(=O)[C@H](Cc2ccccc2)NC(=O)[C@H](CCCNC(=N)N)NC(=O)[C@H](CO)NC(=O)[C@@H](NC(=O)[C@H](C)N)CSCc2cc3cc(c2)CSC[C@@H](C(=O)NCC(N)=O)NC(=O)[C@@H]2CCCN2C(=O)CNC(=O)CNC(=O)[C@H](CCCNC(=N)N)NC(=O)CNC(=O)[C@H](CCCNC(=N)N)NC(=O)[C@H](CSC3)NC(=O)[C@H](CC(=O)O)NC1=O` [UK967] (H-ACSRFEVDCRGRGGPCG-NH2; linker 2-9-16 via TBMB), 0.0181 ± 0.0003 µM.
Take `CC(C)[C@@H]1NC(=O)[C@H](Cc2ccc(O)cc2)NC(=O)[C@H](CCCNC(=N)N)NC(=O)[C@H](CO)NC(=O)[C@@H](NC(=O)[C@H](C)N)CSCc2cc3cc(c2)CSC[C@@H](C(=O)NCC(N)=O)NC(=O)[C@@H]2CCCN2C(=O)CNC(=O)CNC(=O)[C@H](CCCNC(=N)N)NC(=O)CNC(=O)[C@H](CCCNC(=N)N)NC(=O)[C@H](CSC3)NC(=O)[C@H](CC(=O)O)NC(=O)[C@H](C(C)C)NC1=O` [UK968] (H-ACSRYVVDCRGRGGPCG-NH2; linker 2-9-16 via TBMB): the inhibitory constant (Ki) is 0.0055 ± 0.0004 µM.
As for `CC(C)[C@@H]1NC(=O)[C@H](Cc2ccc(O)cc2)NC(=O)[C@H](CCCNC(=N)N)NC(=O)[C@H](CC(=O)O)NC(=O)[C@@H](NC(=O)[C@H](C)N)CSCc2cc3cc(c2)CSC[C@@H](C(=O)NCC(N)=O)NC(=O)[C@@H]2CCCN2C(=O)CNC(=O)CNC(=O)[C@H](CCCNC(=N)N)NC(=O)CNC(=O)[C@H](CCCNC(=N)N)NC(=O)[C@H](CSC3)NC(=O)[C@H](CC(=O)O)NC(=O)[C@H](C(C)C)NC1=O` [UK969] (H-ACDRYVVDCRGRGGPCG-NH2; linker 2-9-16 via TBMB), the inhibitory constant (Ki) was 0.0053 ± 0.0002 µM.

One may read the Ki as a measure of affinity in units of concentration, obtained from inhibition or displacement.
